Series [1] addresses Beta-2 adrenergic receptor (Homo sapiens, UniProt P07550). Description: DRUGMATRIX: Adrenergic beta2 radioligand binding (ligand: [3H] CGP-12177). The class given is cell membranes, CHO, Membrane. Conditions: cho; Not Active = under 50% inhibition at 10 µM.
Series [2] is described as follows: DRUGMATRIX: Sigma2 radioligand binding (ligand: [3H] Ifenprodil). The class given is cell membranes, Rattus norvegicus, Wistar, Brain, Membrane. The following applies: Not Active = under 50% inhibition at 10 µM.
A further series has as its target Melanocortin receptor 3 (Homo sapiens, UniProt P41968). The class given is cell membranes, HEK293, Membrane. Conditions: hek293. Also: in other assays of this panel Not Active means under 50% inhibition at 10 µM.
For series [3], the target named is T1, Nitric oxide synthase, inducible (Mus musculus, UniProt P29477).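 Also: inhibition of iNOS enzyme activity measured with L-arginine as substrate; in other assays of this panel Not Active means under 50% inhibition at 10 µM.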
T1 sequence (P29477 whole entry): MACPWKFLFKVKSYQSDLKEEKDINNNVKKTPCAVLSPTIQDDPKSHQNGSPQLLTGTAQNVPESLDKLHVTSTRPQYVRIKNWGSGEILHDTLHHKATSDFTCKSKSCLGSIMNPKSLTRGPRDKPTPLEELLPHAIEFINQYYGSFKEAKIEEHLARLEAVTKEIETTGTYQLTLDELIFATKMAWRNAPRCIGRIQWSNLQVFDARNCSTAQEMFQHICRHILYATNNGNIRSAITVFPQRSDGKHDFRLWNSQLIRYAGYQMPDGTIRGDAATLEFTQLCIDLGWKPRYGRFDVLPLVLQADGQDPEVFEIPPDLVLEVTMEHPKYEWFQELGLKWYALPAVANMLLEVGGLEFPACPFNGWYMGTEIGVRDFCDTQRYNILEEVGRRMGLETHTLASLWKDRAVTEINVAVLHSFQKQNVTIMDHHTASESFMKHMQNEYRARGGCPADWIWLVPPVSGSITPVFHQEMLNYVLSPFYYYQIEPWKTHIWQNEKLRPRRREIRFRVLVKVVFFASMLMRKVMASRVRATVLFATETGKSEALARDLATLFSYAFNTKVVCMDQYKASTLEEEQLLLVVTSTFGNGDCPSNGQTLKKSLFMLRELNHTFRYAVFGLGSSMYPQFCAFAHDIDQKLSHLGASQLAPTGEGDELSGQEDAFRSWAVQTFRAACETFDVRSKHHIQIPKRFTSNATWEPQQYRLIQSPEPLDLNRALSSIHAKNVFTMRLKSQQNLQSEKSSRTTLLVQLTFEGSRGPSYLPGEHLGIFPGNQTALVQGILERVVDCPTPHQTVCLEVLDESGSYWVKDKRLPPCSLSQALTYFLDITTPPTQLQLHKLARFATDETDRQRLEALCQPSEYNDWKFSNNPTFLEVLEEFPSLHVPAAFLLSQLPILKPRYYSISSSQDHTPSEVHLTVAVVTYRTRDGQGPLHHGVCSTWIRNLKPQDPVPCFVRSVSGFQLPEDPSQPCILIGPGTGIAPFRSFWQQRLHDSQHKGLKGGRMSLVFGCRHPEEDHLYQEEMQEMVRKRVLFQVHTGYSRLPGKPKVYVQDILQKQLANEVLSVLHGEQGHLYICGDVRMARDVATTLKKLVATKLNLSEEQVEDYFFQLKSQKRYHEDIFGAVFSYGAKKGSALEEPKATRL
Set-up: species or system Escherichia coli.

Series [4] deals with Delta-type opioid receptor (Homo sapiens, UniProt P41143). In kind it is cell membranes, HEK293, Membrane.
Sequence of Delta-type opioid receptor (P41143 whole entry): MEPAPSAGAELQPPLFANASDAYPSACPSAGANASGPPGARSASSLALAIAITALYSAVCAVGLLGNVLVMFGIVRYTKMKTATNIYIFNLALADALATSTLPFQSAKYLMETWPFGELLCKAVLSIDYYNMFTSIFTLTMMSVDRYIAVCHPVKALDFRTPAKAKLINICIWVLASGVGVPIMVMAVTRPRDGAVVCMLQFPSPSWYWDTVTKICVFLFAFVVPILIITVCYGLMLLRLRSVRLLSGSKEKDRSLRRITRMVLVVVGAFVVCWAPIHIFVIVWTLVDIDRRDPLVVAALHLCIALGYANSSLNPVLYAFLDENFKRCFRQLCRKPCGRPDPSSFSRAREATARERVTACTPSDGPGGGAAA
Another series has as its target T2, Interstitial collagenase (Homo sapiens, UniProt P03956).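 Also: MMP-1 enzyme inhibition assay using a peptide substrate; in other assays of this panel Not Active means under 50% inhibition at 10 µM.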
T2 sequence (P03956 whole entry): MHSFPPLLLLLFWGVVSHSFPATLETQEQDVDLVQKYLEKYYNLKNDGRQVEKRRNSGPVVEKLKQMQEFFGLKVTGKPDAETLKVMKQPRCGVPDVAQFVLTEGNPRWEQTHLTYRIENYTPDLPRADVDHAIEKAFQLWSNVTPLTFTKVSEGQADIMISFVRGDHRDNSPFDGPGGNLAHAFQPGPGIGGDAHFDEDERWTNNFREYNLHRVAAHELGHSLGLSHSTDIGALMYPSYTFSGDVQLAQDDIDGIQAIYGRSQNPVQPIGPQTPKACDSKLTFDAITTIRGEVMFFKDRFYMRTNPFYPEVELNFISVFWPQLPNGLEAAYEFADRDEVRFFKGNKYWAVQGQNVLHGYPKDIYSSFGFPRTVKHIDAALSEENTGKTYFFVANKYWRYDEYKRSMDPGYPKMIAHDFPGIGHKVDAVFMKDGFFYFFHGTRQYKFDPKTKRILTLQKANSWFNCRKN
Kind of series: biochemical. In kind it is tissue-based, Rheumatoid synovial fibroblasts.

The target of another series is Cytochrome P450 2C19 (Homo sapiens, UniProt P33261). Conditions: bti-tn-5b1-4. Also: in other assays of this panel Not Active means under 50% inhibition at 10 µM.
Sequence of Cytochrome P450 2C19 (P33261 whole entry): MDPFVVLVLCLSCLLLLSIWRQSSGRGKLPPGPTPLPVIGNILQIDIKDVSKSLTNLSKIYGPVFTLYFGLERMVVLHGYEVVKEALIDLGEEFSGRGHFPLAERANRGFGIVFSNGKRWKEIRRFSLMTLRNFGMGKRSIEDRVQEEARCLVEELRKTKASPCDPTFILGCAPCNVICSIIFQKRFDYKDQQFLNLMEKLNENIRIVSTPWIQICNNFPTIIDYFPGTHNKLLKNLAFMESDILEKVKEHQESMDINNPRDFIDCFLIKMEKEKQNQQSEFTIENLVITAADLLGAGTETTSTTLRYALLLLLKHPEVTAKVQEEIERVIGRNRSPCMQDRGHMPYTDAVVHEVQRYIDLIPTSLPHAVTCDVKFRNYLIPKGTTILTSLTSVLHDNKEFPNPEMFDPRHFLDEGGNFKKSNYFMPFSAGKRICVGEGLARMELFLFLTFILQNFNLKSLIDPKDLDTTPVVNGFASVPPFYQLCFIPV

Sequence of Melanocortin receptor 3 (P41968 whole entry): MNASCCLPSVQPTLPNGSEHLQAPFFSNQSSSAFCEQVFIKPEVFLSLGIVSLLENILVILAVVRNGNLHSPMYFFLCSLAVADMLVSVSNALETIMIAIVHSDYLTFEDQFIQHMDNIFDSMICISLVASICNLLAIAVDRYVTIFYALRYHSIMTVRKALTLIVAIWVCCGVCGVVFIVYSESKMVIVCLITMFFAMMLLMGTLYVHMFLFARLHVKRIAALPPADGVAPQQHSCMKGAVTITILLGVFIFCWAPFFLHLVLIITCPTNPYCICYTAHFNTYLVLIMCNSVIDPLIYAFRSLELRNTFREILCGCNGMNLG
Sequence of Beta-2 adrenergic receptor (P07550 whole entry): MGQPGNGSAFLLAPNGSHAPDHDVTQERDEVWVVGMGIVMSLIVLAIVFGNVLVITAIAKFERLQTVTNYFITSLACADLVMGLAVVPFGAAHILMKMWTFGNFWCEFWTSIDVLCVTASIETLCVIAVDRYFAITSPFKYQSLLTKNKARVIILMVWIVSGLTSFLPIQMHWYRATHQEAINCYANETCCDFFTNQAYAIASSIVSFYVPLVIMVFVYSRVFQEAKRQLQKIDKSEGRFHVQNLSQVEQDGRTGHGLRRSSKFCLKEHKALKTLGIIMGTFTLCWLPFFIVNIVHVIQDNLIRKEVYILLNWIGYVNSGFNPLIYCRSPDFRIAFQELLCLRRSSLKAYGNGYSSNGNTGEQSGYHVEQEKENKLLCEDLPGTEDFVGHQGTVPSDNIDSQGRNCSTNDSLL

As a reminder, the IC50 is the concentration that gives 50% inhibition. By Ki is commonly meant a measure of affinity in units of concentration, obtained from inhibition or displacement. As to `CCCCCCNC(=O)n1cc(F)c(=O)[nH]c1=O` [CARMOFUR], the IC50 result (in series [1]; in series [2]; at Melanocortin receptor 3; in series [3]; in series [4] (hek293); against Interstitial collagenase) was “Not Active” in each case. Further, the IC50 result on Cytochrome P450 2C19 is given as “Not Active”. Further, the Ki result (in series [2]; at Cytochrome P450 2C19) was “Not Active” each time.

On to `C#C[C@]1(O)CC[C@H]2[C@@H]3CCC4=CC(=O)CC[C@@H]4[C@H]3CC[C@@]21C` [NORETHINDRONE], for which the IC50 result (in series [1]; in series [2]; at Melanocortin receptor 3; in series [3]; in series [4] (hek293); on Interstitial collagenase) was “Not Active” in each case. The IC50 entry on Cytochrome P450 2C19 is recorded as “Not Active”. The inhibition constant (Ki) result (in series [2]; at Cytochrome P450 2C19) was “Not Active” throughout.

For `Cl.NC[C@H]1CC[C@H](C(=O)Oc2ccc(CCC(=O)O)cc2)CC1` [CETRAXATE HYDROCHLORIDE], the IC50 entry (in series [1]; in series [2]; on Melanocortin receptor 3; in series [3]; in series [4] (hek293); on Interstitial collagenase) was “Not Active” in each case. Moreover, the IC50 result against Cytochrome P450 2C19 is recorded as “Not Active”. In addition, the Ki result (in series [2]; at Cytochrome P450 2C19) was “Not Active” in each case.

`CC(C)Cn1cnc2c(N)nc3ccccc3c21` [IMIQUIMOD]: the IC50 result (in series [1]; in series [2]; on Melanocortin receptor 3; in series [3]; in series [4] (hek293); at Interstitial collagenase) was “Not Active” throughout. Besides, the IC50 entry on Cytochrome P450 2C19 is given as “Not Active”. Besides, the Ki entry (in series [2]; at Cytochrome P450 2C19) was “Not Active” each time.

On to `O=C1CN(/N=C/c2ccc([N+](=O)[O-])o2)C(=O)N1` [NITROFURANTOIN], for which the IC50 entry (in series [1]; in series [2]; at Melanocortin receptor 3; in series [3]; in series [4] (hek293); on Interstitial collagenase) was “Not Active” in each case. For the same compound, at Cytochrome P450 2C19, the IC50 entry is given as “Not Active”. Besides, the Ki entry (in series [2]; on Cytochrome P450 2C19) was “Not Active” in each case.

On to `Cc1c(N)nc([C@H](CC(N)=O)NC[C@H](N)C(N)=O)nc1C(=O)N[C@H](C(=O)N[C@H](C)[C@@H](O)[C@H](C)C(=O)N[C@H](C(=O)NCCc1nc(-c2nc(C(=O)NCCC[S+](C)C)cs2)cs1)[C@@H](C)O)[C@@H](O[C@@H]1O[C@@H](CO)[C@@H](O)[C@H](O)[C@@H]1O[C@H]1O[C@H](CO)[C@@H](O)[C@H](OC(N)=O)[C@@H]1O)c1c[nH]cn1.[Br-]` [BLEOMYCIN A2], for which the IC50 entry (in series [1]; in series [2]; against Melanocortin receptor 3; in series [3]; in series [4] (hek293); against Interstitial collagenase) was “Not Active” throughout. Besides, the half-inhibitory concentration (IC50) entry against Cytochrome P450 2C19 is given as “Not Active”. Also, the inhibition constant (Ki) entry (in series [2]; at Cytochrome P450 2C19) was “Not Active” throughout.

Regarding `CC(C)Cc1ccc([C@H](C)C(=O)O)cc1` [DEXIBUPROFEN], the IC50 result (in series [1]; in series [2]; on Melanocortin receptor 3; in series [3]; in series [4] (hek293); against Interstitial collagenase) was “Not Active” throughout. For the same compound, at Cytochrome P450 2C19, the IC50 result is “Not Active”. Moreover, the Ki entry (in series [2]; on Cytochrome P450 2C19) was “Not Active” throughout.

For `COC(=O)C[C@](O)(CCC(C)(C)O)C(=O)O[C@@H]1C(OC)=C[C@]23CCCN2CCc2cc4c(cc2[C@H]13)OCO4` [HARRINGTONINE], the IC50 entry (in series [1]; in series [2]; on Melanocortin receptor 3; in series [3]; in series [4] (hek293); at Interstitial collagenase) was “Not Active” each time. Moreover, the IC50 result on Cytochrome P450 2C19 was “Not Active”. For the same compound, the Ki entry (in series [2]; on Cytochrome P450 2C19) was “Not Active” in each case.

Consider `CC(C)(c1ccc(O)cc1)c1ccc(O)cc1` [BISPHENOL A], for which the half-inhibitory concentration (IC50) result (in series [1]; in series [2]; on Melanocortin receptor 3; in series [3]; in series [4] (hek293); at Interstitial collagenase) was “Not Active” in each case. Besides, the IC50 result on Cytochrome P450 2C19 is on record as “Not Active”. For the same compound, the Ki result (in series [2]; at Cytochrome P450 2C19) was “Not Active” each time.

With `CCN1CCN(C(=O)N[C@@H](C(=O)N[C@@H]2C(=O)N3[C@@H]2SC(C)(C)[C@@H]3C(=O)O)c2ccccc2)C(=O)C1=O` [PIPERACILLIN], the IC50 result (in series [1]; in series [2]; on Melanocortin receptor 3; in series [3]; in series [4] (hek293); on Interstitial collagenase) was “Not Active” each time. Moreover, the IC50 entry at Cytochrome P450 2C19 is “Not Active”. Besides, the Ki entry (in series [2]; on Cytochrome P450 2C19) was “Not Active” each time.

As to `CC[C@H]1OC(=O)[C@H](C)[C@@H](O[C@H]2C[C@@](C)(OC)[C@@H](O)[C@H](C)O2)[C@H](C)[C@@H](O[C@@H]2O[C@H](C)C[C@H](N(C)C)[C@H]2O)[C@](C)(O)C[C@@H](C)C(=O)[C@H](C)[C@@H](O)[C@]1(C)O` [ERYTHROMYCIN], the IC50 entry (in series [1]; in series [2]; at Melanocortin receptor 3; in series [3]; in series [4] (hek293); on Interstitial collagenase) was “Not Active” throughout. Further, the IC50 result on Cytochrome P450 2C19 was “Not Active”. Moreover, the Ki entry (in series [2]; at Cytochrome P450 2C19) was “Not Active” throughout.

Turning to `NC(N)=Nc1nc(CSCCC(N)=NS(N)(=O)=O)cs1` [FAMOTIDINE], the IC50 result (in series [1]; in series [2]; at Melanocortin receptor 3; in series [3]; in series [4] (hek293); on Interstitial collagenase) was “Not Active” each time. The IC50 result against Cytochrome P450 2C19 is reported as “Not Active”. Further, the Ki entry (in series [2]; at Cytochrome P450 2C19) was “Not Active” in each case.

For `CN(CCOc1ccc(C[C@H](Nc2ccccc2C(=O)c2ccccc2)C(=O)O)cc1)c1ccccn1`, the IC50 result in series [1] is “Not Active”; in series [2], “Not Active”; on Melanocortin receptor 3 it was “Not Active”; in series [3], “Not Active”; in series [4] (read-out: IC50), 3.21 µM; against Interstitial collagenase it was “Not Active”. In addition, the IC50 result at Cytochrome P450 2C19 is given as “Not Active”. Besides, the Ki result in series [2] is “Not Active”; in series [4] (read-out: Ki), 1.13 µM; at Cytochrome P450 2C19, “Not Active”.

As for `COc1cc(NC(C)CCCN)c2ncccc2c1` (stereo unspecified) [PRIMAQUINE], the IC50 entry (in series [1]; in series [2]; at Melanocortin receptor 3; in series [3]; in series [4] (hek293); at Interstitial collagenase) was “Not Active” each time. The IC50 entry at Cytochrome P450 2C19 was “Not Active”. Moreover, the Ki result (in series [2]; on Cytochrome P450 2C19) was “Not Active” each time.

On to `c1ccc2sc(SSc3nc4ccccc4s3)nc2c1` [BENZOTHIAZYL DISULFIDE], for which the IC50 entry (in series [1]; in series [2]; against Melanocortin receptor 3; in series [3]; in series [4] (hek293); against Interstitial collagenase) was “Not Active” each time. Moreover, on Cytochrome P450 2C19, the IC50 entry is “Not Active”. Also, the Ki entry (in series [2]; at Cytochrome P450 2C19) was “Not Active” throughout.

Source of the values: ChEMBL document CHEMBL1909046, “DrugMatrix in vitro pharmacology data”.
